Laboratory results from patent US20260055120A1, “Bicyclic pyrimidinones as inhibitors of NOX4” (Boehringer Ingelheim International GmbH, priority 2024, published 2026).

Key:
[1] = molecular target: human NOX4 (hNOX4) (Homo sapiens (Human), UniProt Q9NPH5); test: NOX4 inhibition assay (HyPerBlu); format: cell-based; settings: HEK293 cells overexpressing hNOX4, HyPerBlu
Protocol: NOX4 inhibition is assessed utilizing HEK293 cells stably overexpressing human NOX4 (hNOX4), generating constitutively high levels of hydrogen peroxide (H2O2). Cells are cultured in the Dulbecco's Modified Eagle Medium (DMEM) media containing 4.5 g/L glucose supplemented with 10% fetal calf serum and 250 μg/ml Zeocin in an incubator at 37° C. with 5% CO2. For the assay, cells are seeded in 384 well plates. […] After incubation Lumigen HyPerBlu™ is added and cells are incubated for additional 30 min at 24° C. in a humidified incubator. Next, luminescence is measured using an Envision Multimode Plate reader to determine levels of produced H2O2 in the wells.

[2] = molecular target: NOX4 (Homo sapiens (Human), UniProt Q9NPH5); settings: modified human embryonic kidney (HEK) cells, Amplex Red as detecting reagent; read-out: NOX4 IC50 as disclosed in WO2016207785; cited from earlier work
NOX4, sequence (Q9NPH5 whole entry, species assumed): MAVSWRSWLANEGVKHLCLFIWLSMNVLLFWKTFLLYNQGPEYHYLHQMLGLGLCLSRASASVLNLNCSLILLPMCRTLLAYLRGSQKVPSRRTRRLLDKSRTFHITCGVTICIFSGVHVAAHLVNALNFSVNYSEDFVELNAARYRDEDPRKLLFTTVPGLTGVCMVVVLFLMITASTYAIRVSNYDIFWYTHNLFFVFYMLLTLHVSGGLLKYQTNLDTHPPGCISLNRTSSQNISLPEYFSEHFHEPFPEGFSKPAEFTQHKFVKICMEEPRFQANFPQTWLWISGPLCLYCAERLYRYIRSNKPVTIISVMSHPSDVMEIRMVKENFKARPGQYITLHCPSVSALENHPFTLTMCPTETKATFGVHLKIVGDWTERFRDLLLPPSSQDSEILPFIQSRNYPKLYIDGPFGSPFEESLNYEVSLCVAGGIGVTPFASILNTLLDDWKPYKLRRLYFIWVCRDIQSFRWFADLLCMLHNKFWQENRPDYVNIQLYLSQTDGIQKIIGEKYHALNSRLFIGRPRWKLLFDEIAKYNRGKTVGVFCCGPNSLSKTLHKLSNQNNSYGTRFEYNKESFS
NOX4, sequence (P13498 2-195 partner, species assumed): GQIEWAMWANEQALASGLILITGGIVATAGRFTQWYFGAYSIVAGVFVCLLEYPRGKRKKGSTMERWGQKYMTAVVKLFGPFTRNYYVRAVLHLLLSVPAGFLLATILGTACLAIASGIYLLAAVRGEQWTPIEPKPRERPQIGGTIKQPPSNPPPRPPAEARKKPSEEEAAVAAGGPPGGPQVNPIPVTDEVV

human NOX4 (hNOX4), sequence (Q9NPH5 whole entry): as the sequence (Q9NPH5 whole entry, species assumed) above
human NOX4 (hNOX4), sequence (P13498 2-195 partner): as the sequence (P13498 2-195 partner, species assumed) above

IC50 [1] | SMILES | IC50 [2]
79 µM | O=c1c2ncccc2nc(SCc2ccccc2F)n1-c1ccc(Cl)cc1 [WO2005049613 example 59] | 
 | O=C(Nc1ccc2oc(N3CCC34COC4)nc2c1)c1ccc2c(c1)CCO2 [WO2016207785 example 15] | 0.4 µM
